# Test results taken from patent US20260109707A1, “HETEROBIFUNCTIONAL COMPOUNDS AND METHODS OF TREATING DISEASE” (Halda Therapeutics OpCo. Inc., priority 2022, published 2026).
# Read-outs that look alike come from different tables or passages of the source.
# What was measured:
# [1] = test system: T-Rex 293 cell line SC3 cells having increased expression of androgen receptor protein due to exposure to doxycycline; assay: Cellular growth inhibition assay, T-Rex 293 SC3 cells with doxycycline (CellTiter-Glo, 72 hours); type: cell-based; conditions: T-Rex 293 SC3 cells with increased androgen receptor expression due to doxycycline (10 ng/mL)
# In short: (§1)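 Doxycycline (10 ng/mL) was either included or omitted to toggle wild-type androgen receptor expression in SC3 cells, a T-Rex 293 clone, grown in stripped-serum, phenol red-free medium. After 72 hours with compound, viable cells were quantified by CellTiter-Glo 2.0.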
# [2] = test system: T-Rex 293 cell line SC3 cells lacking increased expression of androgen receptor protein; assay: Cellular growth inhibition assay, T-Rex 293 SC3 cells without doxycycline (CellTiter-Glo, 72 hours); type: cell-based; conditions: T-Rex 293 cell line SC3 cells not exposed to doxycycline (lacking increased androgen receptor expression)
# In short: as §1
# VCaP cells = assay: Cellular growth inhibition assay for VCaP cells (CellTiter-Glo, 72 hours); type: cell-based, human
# In short: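 Luminescent viability signal after 72 h of compound exposure gave GI50 values by four-parameter nonlinear regression. Compounds were added in 0.5% DMSO to cells plated 24 h earlier at 5000/well in DMEM containing 10% FBS.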
# T47D cells = assay: Cellular growth inhibition assay for T47D cells (CellTiter-Glo, 72 hours); type: cell-based, human; conditions: 72 hours treatment
# In short: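 Growth inhibition as GI50, fitted with four parameters to CellTiter-Glo luminescence after 72 h of compound exposure (0.5% DMSO). Cells were T47D, grown in insulin-supplemented (0.2 units/mL) DMEM with 10% FBS and treated one day post-seeding.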
Structure (SMILES),GI50 ([1]; 72 h) [µM],GI50 ([2]; 72 h) [µM],"GI50 (VCaP cells; Homo sapiens, VCaP, 72 h) [µM]","GI50 (T47D cells; Homo sapiens, T47D, 72 h) [µM]",GI50 [1] [µM],GI50 [2] [µM],GI50 (VCaP cells) [µM],GI50 (T47D cells) [µM]
Cc1sc2c(c1C)C(c1ccc(CCC(=O)N3CCN(c4ccc(C(=O)N[C@H]5CC[C@H](Oc6ccc(C#N)c(Cl)c6)CC5)nn4)CC3)cc1)=N[C@@H](Cc1ncco1)c1nnc(C)n1-2 [I-249],< 0.5,0.5 to 1.5,< 0.5,< 0.5,,,,
Cc1sc2c(c1C)C(c1ccc(C#C[C@H]3C[C@@]4(CCCN(c5ccc(C(=O)N[C@H]6CC[C@H](Oc7ccc(C#N)c(Cl)c7)CC6)nn5)C4)C3)cc1)=N[C@@H](C)c1nnc(C)n1-2 [I-336],< 0.5,< 0.5,< 0.5,< 0.5,,,,
Cc1sc2c(c1C)C(c1ccc(CCN3CCOC4(CCN(c5ccc(C(=O)N[C@H]6CC[C@H](Oc7ccc(C#N)c(Cl)c7)CC6)nn5)CC4)C3)cc1)=N[C@@H](Cc1ncco1)c1nnc(C)n1-2 [I-222],< 0.5,0.5 to 1.5,< 0.5,< 0.5,,,,
Cc1sc2c(c1C)C(c1ccc(O[C@H]3C[C@H](OC4CCN(c5ccc(C(=O)N[C@H]6CC[C@H](Oc7ccc(C#N)c(Cl)c7)CC6)nn5)CC4)C3)cc1)=N[C@@H](Cc1ncco1)c1nnc(C)n1-2 [I-90],< 0.5,< 0.5,< 0.5,< 0.5,,,,
Cc1sc2c(c1C)C(c1ccc(CNC(=O)NCc3ccc(C(=O)N[C@H]4CC[C@H](Oc5ccc(C#N)c(Cl)c5)CC4)nn3)cc1)=N[C@@H](Cc1ncco1)c1nnc(C)n1-2 [I-289],< 0.5,> 3,1.5 to 3,1.5 to 3,,,,
Cc1sc2c(c1C)C(c1ccc(CCO[C@H]3CCCN(c4ccc(C(=O)N[C@H]5CC[C@H](Oc6ccc(C#N)c(Cl)c6)CC5)nn4)C3)cc1)=N[C@@H](Cc1ncco1)c1nnc(C)n1-2 [I-279],< 0.5,< 0.5,< 0.5,0.5 to 1.5,,,,
Cc1sc2c(c1C)C(c1ccc(CCC3CC4(CCCC(c5ccc(C(=O)N[C@H]6CC[C@H](Oc7ccc(C#N)c(Cl)c7)CC6)nn5)C4)C3)nc1)=N[C@@H](Cc1ncco1)c1nnc(C)n1-2 (stereo partly drawn) [I-439],,,,,< 0.5,< 0.5,0.5 to 1.5,0.5 to 1.5
Cc1sc2c(c1C)C(c1ccc(OC[C@H]3CC[C@@]4(CCCN(c5ccc(C(=O)N[C@H]6CC[C@H](Oc7ccc(C#N)c(Cl)c7)CC6)nn5)C4)C3)cn1)=N[C@@H](Cc1ncco1)c1nnc(C)n1-2 [I-406],< 0.5,< 0.5,< 0.5,< 0.5,,,,
Cc1sc2c(c1C)C(c1ccc(CC3CC4(CCN(c5ccc(C(=O)N[C@H]6CC[C@H](Oc7ccc(C#N)c(Cl)c7)CC6)nn5)CC4)C3)cc1)=N[C@H](Cc1ncco1)c1nnc(C)n1-2 [I-111],< 0.5,> 3,< 0.5,> 3,,,,
CCNC(=O)C[C@@H]1N=C(c2ccc(N3CCC(N(C)C4CCN(c5ccc(C(=O)N[C@H]6CC[C@H](Oc7ccc(C#N)c(Cl)c7)CC6)nn5)CC4)CC3)cc2)c2c(sc(C)c2C)-n2c(C)nnc21 [I-43],< 0.5,1.5 to 3,< 0.5,0.5 to 1.5,,,,
Cc1sc2c(c1C)C(c1ccc(C[C@@H]3CC[C@]4(C3)CN(c3ccc(C(=O)N[C@H]5CC[C@H](Oc6ccc(C#N)c(Cl)c6)CC5)nn3)CCO4)cc1)=NC(Cc1ncco1)c1nnc(C)n1-2 (stereo partly drawn) [I-288],< 0.5,< 0.5,< 0.5,< 0.5,,,,
Cc1sc2c(c1C)C(c1ccc(OC3CC4(CCN(c5ccc(C(=O)N[C@H]6CC[C@H](Oc7ccc(C#N)c(Cl)c7)CC6)nn5)CC4)C3)cc1)=N[C@@H](CC(C)(C)O)c1nnc(C)n1-2 [I-245],< 0.5,> 3,< 0.5,> 3,,,,
Cc1sc2c(c1C)C(c1ccc(C#CC3CC4(C3)CN(c3ccc(C(=O)N[C@H]5CC[C@H](Oc6ccc(C#N)c(Cl)c6)CC5)nn3)C4)nc1)=N[C@@H](C)c1nnc(C)n1-2 [I-426],< 0.5,< 0.5,< 0.5,0.5 to 1.5,,,,
Cc1sc2c(c1C)C(c1ccc(CN(C)C(=O)NCc3ccc(C(=O)N[C@H]4CC[C@H](Oc5ccc(C#N)c(Cl)c5)CC4)nn3)cc1)=N[C@@H](Cc1ncco1)c1nnc(C)n1-2 [I-318],< 0.5,> 3,< 0.5,> 3,,,,
Cc1sc2c(c1C)C(c1ccc(C(=O)N3CCC(N(C)c4ccc(C(=O)N[C@H]5CC[C@H](Oc6ccc(C#N)c(Cl)c6)CC5)nn4)CC3)cc1)=N[C@H](Cc1ncco1)c1nnc(C)n1-2 [I-307],< 0.5,0.5 to 1.5,1.5 to 3,1.5 to 3,,,,
